Assays:
[1] = biological target: T1, Adenosylhomocysteinase (Homo sapiens, UniProt P23526); assay: The kinetic constant for inhibition of S-adenosyl-homocysteine hydrolase by the compound
Target sequence in this assay (P23526 whole entry): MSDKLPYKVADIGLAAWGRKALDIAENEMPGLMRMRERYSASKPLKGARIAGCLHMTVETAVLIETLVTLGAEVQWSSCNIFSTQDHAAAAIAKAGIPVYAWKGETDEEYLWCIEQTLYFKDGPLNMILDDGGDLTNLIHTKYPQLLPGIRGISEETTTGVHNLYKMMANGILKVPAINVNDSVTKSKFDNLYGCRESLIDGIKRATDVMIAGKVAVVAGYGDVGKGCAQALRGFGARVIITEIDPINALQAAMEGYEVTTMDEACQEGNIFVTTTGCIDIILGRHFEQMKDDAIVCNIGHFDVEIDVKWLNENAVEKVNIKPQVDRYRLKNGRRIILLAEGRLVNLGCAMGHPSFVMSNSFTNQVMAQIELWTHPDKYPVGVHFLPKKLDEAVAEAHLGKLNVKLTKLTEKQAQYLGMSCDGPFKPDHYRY

[2] = Ratio of Kinact value to that of Ki value
[3] = biological target: T1, Adenosylhomocysteinase; assay: The kinetic constant for inhibition of S-adenosyl-homocysteine hydrolase obtained from human placenta by the compound
Target sequence in this assay (P23526 2-432 limits assumed): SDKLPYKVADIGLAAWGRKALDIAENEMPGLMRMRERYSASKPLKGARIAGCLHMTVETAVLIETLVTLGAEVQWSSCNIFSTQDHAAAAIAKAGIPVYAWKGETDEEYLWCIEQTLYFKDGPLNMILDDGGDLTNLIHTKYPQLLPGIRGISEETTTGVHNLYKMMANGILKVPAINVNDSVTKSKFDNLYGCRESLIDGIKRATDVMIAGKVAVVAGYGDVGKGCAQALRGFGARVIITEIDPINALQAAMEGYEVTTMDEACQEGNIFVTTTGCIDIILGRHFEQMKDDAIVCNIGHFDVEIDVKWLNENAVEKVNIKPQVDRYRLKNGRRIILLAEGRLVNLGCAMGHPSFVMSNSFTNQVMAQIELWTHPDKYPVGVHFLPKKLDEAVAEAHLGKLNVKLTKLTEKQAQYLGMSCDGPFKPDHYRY

| Structure (SMILES) | Ki [1] [µM] | K inact/Ki [2] [M⁻¹ s⁻¹] | K inact [3] [min⁻¹] |
| --- | --- | --- | --- |
| Nc1ncnc2c1ncn2C1O[C@H](/C=C(/F)Br)[C@@H](O)[C@H]1O (some centres undefined) | 3.9 | 170 | 0.04 |
| Nc1ncnc2c1ncn2C1O[C@H](C=C(Br)Br)[C@@H](O)[C@H]1O (some centres undefined) | 3.1 | 193 | 0.036 |
| Nc1ncnc2c1ncn2C1O[C@H](/C(Br)=C\Br)[C@@H](O)[C@H]1O (some centres undefined) | 3.6 | 375 | 0.081 |

From ChEMBL document CHEMBL1131055, “Discovery of type II (covalent) inactivation of S-adenosyl-L-homocysteine hydrolase involving its "hydrolytic activity": synthesis and evaluation of dihalohomovinyl nucleoside analogues derived from adenosine” (J Med Chem, 1998)
